Data on 31 molecules can be found in patent publication US10202370B2, “Benzimidazole derivatives as selective proteine kinase inhibitors” (AB SCIENCE, priority 2013, dated 2019).

In general, pIC50 refers to the negative decadic logarithm of the IC50, by convention in mol/L. Low values mean a large IC50, high ones a small IC50.

pIC50: −log10 of the molar value.

Chain of c-kit WT (P10721 26-976): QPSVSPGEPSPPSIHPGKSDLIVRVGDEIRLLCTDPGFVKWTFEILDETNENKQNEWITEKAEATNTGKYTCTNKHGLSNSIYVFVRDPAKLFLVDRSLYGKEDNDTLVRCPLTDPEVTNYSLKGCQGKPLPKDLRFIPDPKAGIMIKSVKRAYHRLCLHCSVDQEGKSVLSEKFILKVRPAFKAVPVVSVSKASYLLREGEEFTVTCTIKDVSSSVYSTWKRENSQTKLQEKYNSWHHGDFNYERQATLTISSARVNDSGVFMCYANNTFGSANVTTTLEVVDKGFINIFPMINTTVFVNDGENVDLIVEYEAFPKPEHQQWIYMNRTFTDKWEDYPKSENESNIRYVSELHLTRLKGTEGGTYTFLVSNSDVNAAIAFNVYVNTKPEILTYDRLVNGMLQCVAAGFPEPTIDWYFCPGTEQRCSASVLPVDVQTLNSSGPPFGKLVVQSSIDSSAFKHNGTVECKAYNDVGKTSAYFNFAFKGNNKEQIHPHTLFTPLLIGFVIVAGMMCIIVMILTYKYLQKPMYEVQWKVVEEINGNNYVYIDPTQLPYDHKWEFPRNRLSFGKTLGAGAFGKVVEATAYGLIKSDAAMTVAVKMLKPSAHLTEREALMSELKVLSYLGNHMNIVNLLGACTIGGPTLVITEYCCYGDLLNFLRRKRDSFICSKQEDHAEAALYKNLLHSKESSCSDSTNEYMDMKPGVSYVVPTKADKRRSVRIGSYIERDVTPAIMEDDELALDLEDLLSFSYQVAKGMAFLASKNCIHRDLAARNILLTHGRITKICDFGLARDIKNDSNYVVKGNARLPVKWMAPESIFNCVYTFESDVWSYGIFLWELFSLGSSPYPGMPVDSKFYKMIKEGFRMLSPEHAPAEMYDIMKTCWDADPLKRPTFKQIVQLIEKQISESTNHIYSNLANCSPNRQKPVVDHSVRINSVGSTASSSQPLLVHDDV

This assay concerns the target c-kit WT (Homo sapiens (Human), UniProt P10721). The experiment in a line: Proliferation assay (CellTiter-Blue) on BaF3 Kit WT cell line. Type of assay: cell-based. Conditions: BaF3 Kit WT cell line (murine Ba/F3 expressing Human Kit WT, with murine SCF), 48 hours. The protocol:
Procedures of C-Kit WT Inhibition Assays:
Colorimetric cell proliferation and viability assay (reagent CellTiter-Blue purchased from Promega cat N°G8081) was performed on BaF3 Kit WT cell line.
A total of 2.10^4 cells/50 μl were seeded per well of a 96-wells plate. Treatment was initiated by addition of a 2× drug solution of ½ serial dilutions ranging from 0 to 10 μM. After incubating for 48 hours at 37° C., 10 μl of a ½ dilution of CellTiter-Blue reagent was added to each well and the plates were returned to the incubator for an additional 4 hours. The fluorescence intensity from the CellTiter-Blue reagent is proportional to the number of viable cells and data were recorded (544Ex/590Em) using a POLARstar OMEGA microplate reader (BMG LabteckSarl). A background control without cells was used as a blank. The positive control of the assay corresponds to the cell proliferation obtained in the absence of drug treatment (100% proliferation). Each sample was done in triplicate. The results were expressed as a percentage of the proliferation obtained in absence of treatment. All drugs were prepared as 20 mM stock solutions in DMSO and conserved at −80° C. Drug dilutions were made fresh in medium before each experiment. A DMSO control was included in each experiment.
The cell line expressing Human Kit WT was derived from the murine IL3-dependent Ba/F3 proB lymphoid cells. Ba/F3 Kit WT cells were maintained in RPMI medium containing 10% FCS and supplemented with 250 ng/ml of recombinant murine SCF.
In general terms: Alamar Blue is a resazurin reagent that responds to reducing activity.
`Cc1cc2nc(-c3cccc(C(F)F)c3)[nH]c2cc1Nc1nc(-c2ccncc2)cs1` [Compound 045, [2-(3-Difluoromethyl-phenyl)-6-methyl-3H-benzoimidazol-5-yl]-(4-pyridin-4-yl-thiazol-2-yl)-amine] showed a pIC50 not below 6.00. `Cc1cc2nc(-c3cccc(CN4CCN(C)CC4)c3)[nH]c2cc1Nc1nc(-c2ccncc2)cs1` [Compound 046, {6-Methyl-2-[3-(4-methyl-piperazin-1-ylmethyl)-phenyl]-1H-benzoimidazol-5-yl}-(4-pyridin-4-yl-thiazol-2-yl)-amine]: the pIC50 was 5.00 to 6.00. Consider `Cc1cc2nc(-c3cccc(OC(F)(F)F)c3)[nH]c2cc1Nc1nc(-c2ccncc2)cs1` [Compound 047, [6-Methyl-2-(3-trifluoromethoxy-phenyl)-3H-benzoimidazol-5-yl]-(4-pyridin-4-yl-thiazol-2-yl)-amine], for which the negative logarithm of the IC50 (pIC50) was not below 6.00. In turn, `Cc1cc2nc(-c3ccc(CN4CCN(C)CC4)cc3)[nH]c2cc1Nc1nc(-c2ccncc2)cs1` [Compound 048, {6-Methyl-2-[4-(4-methyl-piperazin-1-ylmethyl)-phenyl]-1H-benzoimidazol-5-yl}-(4-pyridin-4-yl-thiazol-2-yl)-amine] had a pIC50 of 5.00 to 6.00. Molecule `Cc1cc2nc(-c3cncc(C(F)(F)F)c3)[nH]c2cc1Nc1nc(-c2cccnc2)cs1` [Compound 049, [6-Methyl-2-(5-trifluoromethyl-pyridin-3-yl)-3H-benzoimidazol-5-yl]-(4-pyridin-3-yl-thiazol-2-yl)-amine] had a pIC50 not below 6.00.

The molecule `Cc1cc2nc(-c3ccc(C(F)(F)F)cc3)[nH]c2cc1Nc1nc(-c2ccncc2)cs1` [Compound 050, [6-Methyl-2-(4-trifluoromethyl-phenyl)-3H-benzoimidazol-5-yl]-(4-pyridin-4-yl-thiazol-2-yl)-amine] showed a pIC50 not below 6.00.

`Cc1cc2nc(Cc3cccc(C(F)(F)F)c3)[nH]c2cc1Nc1ncc(-c2ccncc2)o1` [Compound 051, [6-Methyl-2-(3-trifluoromethyl-benzyl)-3H-benzoimidazol-5-yl]-(5-pyridin-4-yl-oxazol-2-yl)-amine] had a pIC50 of 5.00 to 6.00. In turn, `Cc1cc2nc(Cc3cccc(F)c3)[nH]c2cc1Nc1ncc(-c2ccncc2)o1` [Compound 052, [2-(3-Fluoro-benzyl)-6-methyl-3H-benzoimidazol-5-yl]-(5-pyridin-4-yl-oxazol-2-yl)-amine] had a negative-log IC50 (pIC50) of 5.00 to 6.00.

As to `Cc1cc2nc(-c3cccc(C(F)(F)F)c3)[nH]c2cc1Nc1ncc(-c2ccncc2)o1` [Compound 053, [6-Methyl-2-(3-trifluoromethyl-phenyl)-3H-benzoimidazol-5-yl]-(5-pyridin-4-yl-oxazol-2-yl)-amine], the pIC50 is 5.00 to 6.00. Regarding `Cc1cc2nc(Cc3ccc(C(F)(F)F)cc3)[nH]c2cc1Nc1ncc(-c2ccncc2)o1` [Compound 054, [6-Methyl-2-(4-trifluoromethyl-benzyl)-3H-benzoimidazol-5-yl]-(5-pyridin-4-yl-oxazol-2-yl)-amine], the pIC50 is 5.00 to 6.00.

Take `Cc1cc2nc(CN3CCOCC3)[nH]c2cc1Nc1ncc(-c2ccncc2)o1` [Compound 055, (6-Methyl-2-morpholin-4-ylmethyl-3H-benzoimidazol-5-yl)-(5-pyridin-4-yl-oxazol-2-yl)-amine]: the pIC50 is 5.00 to 6.00.

`Cc1cc2nc(-c3ccc(C)c(C(F)(F)F)c3)[nH]c2cc1Nc1nc(-c2cccnc2)cs1` [Compound 056, [6-Methyl-2-(4-methyl-3-trifluoromethyl-phenyl)-3H-benzoimidazol-5-yl]-(4-pyridin-3-yl-thiazol-2-yl)-amine] showed a pIC50 not below 6.00. As to `Cc1cc2nc(-c3ccc(-n4cccn4)cc3)[nH]c2cc1Nc1nc(-c2cccnc2)cs1` [Compound 057, [6-Methyl-2-(4-pyrazol-1-yl-phenyl)-3H-benzoimidazol-5-yl]-(4-pyridin-3-yl-thiazol-2-yl)-amine], the negative logarithm of the IC50 (pIC50) is not below 6.00. As to `Cc1cc2nc(-c3cc(F)cc(C(F)(F)F)c3)[nH]c2cc1Nc1nc(-c2cccnc2)cs1` [Compound 058, [2-(3-Fluoro-5-trifluoromethyl-phenyl)-6-methyl-3H-benzoimidazol-5-yl]-(4-pyridin-3-yl-thiazol-2-yl)-amine], the negative-log IC50 (pIC50) was not below 6.00.

Take `Cc1cc2nc(-c3ccc(Cl)cc3)[nH]c2cc1Nc1nc(-c2cccnc2)cs1` [Compound 059, [2-(4-Chloro-phenyl)-6-methyl-1H-benzoimidazol-5-yl]-(4-pyridin-3-yl-thiazol-2-yl)-amine]: the pIC50 was 5.00 to 6.00. For `Cc1cc2nc(-c3ccc(F)cc3)[nH]c2cc1Nc1nc(-c2cccnc2)cs1` [Compound 060, [2-(4-Fluoro-phenyl)-6-methyl-1H-benzoimidazol-5-yl]-(4-pyridin-3-yl-thiazol-2-yl)-amine], the negative-log IC50 (pIC50) was 5.00 to 6.00. `Cc1cc2nc(-c3cccc(C(F)F)c3)[nH]c2cc1Nc1nc(-c2cncnc2)cs1` [Compound 061, [2-(3-Difluoromethyl-phenyl)-6-methyl-3H-benzoimidazol-5-yl]-(4-pyrimidin-5-yl-thiazol-2-yl)-amine] gave a pIC50 not below 6.00.

`Cc1cc2nc(-c3cccc(C(F)(F)F)c3)[nH]c2cc1Nc1nc(-c2cncnc2)cs1` [Compound 062, [6-Methyl-2-(3-trifluoromethyl-phenyl)-3H-benzoimidazol-5-yl]-(4-pyrimidin-5-yl-thiazol-2-yl)-amine] showed a pIC50 not below 6.00. In the case of `Cc1cc2nc(-c3cccc(OC(F)(F)F)c3)[nH]c2cc1Nc1nc(-c2cncnc2)cs1` [Compound 063, [6-Methyl-2-(3-trifluoromethoxy-phenyl)-3H-benzoimidazol-5-yl]-(4-pyrimidin-5-yl-thiazol-2-yl)-amine], the pIC50 is 5.00 to 6.00. With `Cc1cc2nc(CN3CCOCC3)[nH]c2cc1Nc1nc(-c2cccnc2)cs1` [Compound 064, (6-Methyl-2-morpholin-4-ylmethyl-3H-benzoimidazol-5-yl)-(4-pyridin-3-yl-thiazol-2-yl)-amine], the pIC50 was 5.00 to 6.00.

In turn, `Cc1cc2nc(-c3ccc(CN4CCN(C)CC4)cc3)[nH]c2cc1Nc1nc(-c2cncnc2)cs1` [Compound 065, {6-Methyl-2-[4-(4-methyl-piperazin-1-ylmethyl)-phenyl]-3H-benzoimidazol-5-yl}-(4-pyrimidin-5-yl-thiazol-2-yl)-amine] showed a pIC50 of 5.00 to 6.00. Under `Cc1cccc(-c2nc3cc(C)c(Nc4nc(-c5cncnc5)cs4)cc3[nH]2)c1` [Compound 066, (6-Methyl-2-m-tolyl-1H-benzoimidazol-5-yl)-(4-pyrimidin-5-yl-thiazol-2-yl)-amine] stands 5.00 to 6.00. Under `Cc1cc2nc(-c3ccc(C(F)(F)F)cc3)[nH]c2cc1Nc1nc(-c2cncnc2)cs1` [Compound 067, [6-Methyl-2-(4-trifluoromethyl-phenyl)-1H-benzoimidazol-5-yl]-(4-pyrimidin-5-yl-thiazol-2-yl)-amine] stands 5.00 to 6.00; under `Cc1cc2nc(-c3cccc(Cl)c3)[nH]c2cc1Nc1nc(-c2cncnc2)cs1` [Compound 068, [2-(3-Chloro-phenyl)-6-methyl-1H-benzoimidazol-5-yl]-(4-pyrimidin-5-yl-thiazol-2-yl)-amine], 5.00 to 6.00. As for `Cc1cc2nc(-c3cccc(C(F)F)c3)[nH]c2cc1Nc1nc(-c2ccc(C#N)cc2)cs1` [Compound 069, 4-{2-[2-(3-Difluoromethyl-phenyl)-6-methyl-3H-benzoimidazol-5-ylamino]-thiazol-4-yl}-benzonitrile], the figure is not below 6.00; as for `Cc1cc2nc(-c3cccc(C(F)(F)F)c3)[nH]c2cc1Nc1nc(-c2ccc(C#N)cc2)cs1` [Compound 070, 4-{2-[6-Methyl-2-(3-trifluoromethyl-phenyl)-3H-benzoimidazol-5-ylamino]-thiazol-4-yl}-benzonitrile], not below 6.00. Molecule `Cc1cc2nc(-c3cccc(C(F)F)c3)[nH]c2cc1Nc1nc(-c2ccc(C(N)=O)cc2)cs1` [Compound 071, 4-{2-[2-(3-Difluoromethyl-phenyl)-6-methyl-3H-benzoimidazol-5-ylamino]-thiazol-4-yl}-benzamide] showed a pIC50 not below 6.00.

On to `Cc1cc2nc(-c3ccc(C(F)(F)F)cc3)[nH]c2cc1Nc1nc(-c2ccc(C(N)=O)cc2)cs1` [Compound 072, 4-{2-[6-Methyl-2-(4-trifluoromethyl-phenyl)-3H-benzoimidazol-5-ylamino]-thiazol-4-yl}-benzamide], for which the pIC50 was not below 6.00. As for `Cc1cc2nc(-c3cccc(OC(F)(F)F)c3)[nH]c2cc1Nc1nc(-c2ccc(C(N)=O)cc2)cs1` [Compound 073, 4-{2-[6-Methyl-2-(3-trifluoromethoxy-phenyl)-3H-benzoimidazol-5-ylamino]-thiazol-4-yl}-benzamide], the figure is not below 6.00; as for `Cc1cccc(-c2nc3cc(C)c(Nc4nc(-c5ccc(C#N)cc5)cs4)cc3[nH]2)c1` [Compound 074, 4-[2-(6-Methyl-2-m-tolyl-3H-benzoimidazol-5-ylamino)-thiazol-4-yl]-benzonitrile], not below 6.00; as for `Cc1cc2nc(-c3cccc(OC(F)(F)F)c3)[nH]c2cc1Nc1nc(-c2ccc(C#N)cc2)cs1` [Compound 075, 4-{2-[6-Methyl-2-(3-trifluoromethoxy-phenyl)-3H-benzoimidazol-5-ylamino]-thiazol-4-yl}-benzonitrile], not below 6.00.
